From ChEMBL document CHEMBL1134201, “Exploring the relationship between binding modes of 9-(aminomethyl)-9,10-dihydroanthracene and cyproheptadine analogues at the 5-HT2A serotonin receptor” (Bioorg Med Chem Lett, 2001) come the findings set out here.

In experiment [1] the target is T1, 5-hydroxytryptamine receptor 2A (Rattus norvegicus, UniProt P14842). The experiment can be described thus: Binding affinity against 5-hydroxytryptamine 2A receptor from rat forebrain using [3H]ketanserin as radioligand.
Experiment [2] deals with T1, 5-hydroxytryptamine receptor 2A. The experiment can be described thus: Binding affinity against 5-hydroxytryptamine 2A receptor expressed NIH3T3 cells using [3H]ketanserin. The experiment is classed as cell-based.

T1 sequence (P14842 whole entry): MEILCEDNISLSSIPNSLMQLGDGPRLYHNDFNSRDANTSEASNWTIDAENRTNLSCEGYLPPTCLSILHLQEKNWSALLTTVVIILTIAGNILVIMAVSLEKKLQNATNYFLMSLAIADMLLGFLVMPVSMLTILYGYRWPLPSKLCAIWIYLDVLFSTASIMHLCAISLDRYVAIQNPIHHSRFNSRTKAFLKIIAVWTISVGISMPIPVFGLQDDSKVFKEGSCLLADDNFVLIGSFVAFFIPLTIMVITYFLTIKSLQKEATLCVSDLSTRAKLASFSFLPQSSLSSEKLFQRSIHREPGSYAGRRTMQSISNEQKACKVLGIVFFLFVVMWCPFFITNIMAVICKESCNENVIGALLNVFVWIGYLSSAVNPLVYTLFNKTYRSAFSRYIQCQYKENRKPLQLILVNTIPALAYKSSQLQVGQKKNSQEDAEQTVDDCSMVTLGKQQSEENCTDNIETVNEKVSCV

Usually Ki stands for a measure of affinity in units of concentration, obtained from inhibition or displacement. Lower therefore signals a stronger hold on the target. `CN1CCC(=C2c3ccccc3Oc3ccccc32)CC1` returned an inhibition constant Ki in experiment [1] of 4 nM.
In experiment [1], `CN1CCC(=C2c3ccccc3Sc3ccccc32)CC1` [PIMETHIXENE] had a Ki of 2.5 nM.
Still for that read-out and setting: next, `CN1CCC(=C2c3ccccc3-c3ccccc32)CC1`: 199 nM.
Take `NCC1c2ccccc2Oc2ccccc21`: in experiment [2], affinity was put at a Ki of 170 nM.
`CN1CCC(=C(c2ccccc2)c2ccccc2)CC1` showed an inhibition constant (Ki) in experiment [1] of 13 nM.
On to `NCC1c2ccccc2CCc2ccccc21`, for which the affinity in experiment [2] corresponds to a Ki of 112 nM.
On the same count and under the same terms, in the case of `CN1CCC(=C2c3ccccc3Cc3ccccc32)CC1` it was 0.7 nM.
The same measure, in the same setting: in the case of `NCC1c2ccccc2Sc2ccccc21` it was 65 nM.
Consider `CN1CCC(=C2c3ccccc3CCc3ccccc32)CC1`, for which the affinity in experiment [1] corresponds to a Ki of 9 nM.
Same read-out and setting: next, `CC(=C1CCN(C)CC1)c1ccccc1`: 355 nM.
